The values below come from patent US9512139B2, “Conformationally constrained, fully synthetic macrocyclic compounds” (POLYPHOR AG, priority 2009, dated 2016).

In the assay the target is T1, Prostaglandin F (FP) Receptor (Homo sapiens, UniProt P43088).
T1 construct: host or cells: Ca2+ optimized hematopoietic cell lines (rat)
Briefly: Ca2+ assay (FLIPR) for the GPCR prostaglandin F (FP) receptor, agonist and antagonist mode. Type of assay: cell-based. On the procedure:
Biological and Pharmacological Methods 1. Ca^2+ Assays for the GPCRs Motilin Receptor, Prostaglandin F (FP) Receptor, 5-hydroxytryptamine 2B (5-HT2B) Receptor, and Purinoreceptor P2Y1
Assays were performed using on a FLIPR^TETRA fluorometric imaging plate reader (Molecular Devices) with ScreenWorks Version 2 (Molecular Devices) as device operating and data analysis software.
Dose dependent agonist and antagonist activities were determined. Percentage activation and percentage inhibition values were determined.
Percentage activation was determined upon initial addition of the sample compounds followed by 10 minutes incubation at 25° C. Following compound incubation, reference agonists were added at EC80 to determine percentage inhibition.
Reference agonists were purchased from reputable commercial vendors and prepared according to each ligand's specifications. All handling of ligands were done to ensure proper control throughout the experiments.
Example compounds were weighed on a Microbalance (Mettler MX5) and dissolved in 100% DMSO to a final concentration of 2.5 mM and subsequently diluted into the assay buffer.
The Assay buffer was a supplemented HBSS (Hank's Balanced Salt Solution). HBSS was supplemented with 20 mM HEPES (4-(2-hydroxyethyl)-piperazin-1-ethansulfonic acid) and 2.5 mM Probenecid (Sigma P8761).
GPCR assays were performed using Ca^2+ optimized hematopoietic cell lines (rat) with cultures never exceeding 90% confluency. Cells were harvested and seeded (from cultures at less than 90% confluency) at 50000 cells/well for a 96-well plate (12500 cells/well for 384). After seeding, the assay plates were incubated for forty-five (45) minutes at room temperature. After room temperature incubation, the assay plates were incubated at 37° C. 5% CO2 for 24 hours prior to assaying.
All GPCR assays were performed using Fluo-8 Ca^2+ dye. Ca^2+ dye was prepared at 1× dye concentration in GPCR assay buffer. After 24 hours of incubation, cells were washed with GPCR assay buffer, and then Ca^2+-dye (100 μL/well) was added.
The plates were incubated for 90 minutes at 30° C. 5% CO2 prior to FLIPR assay.
Compound plates were prepared to add 50 μL/well during the agonist assay mode. During the FLIPR assay, 50 μL/well from the compound plate was diluted 3-fold into the existing 100 μL/well from the dye loading step. Therefore all compounds were prepared as 3× the final concentration desired in the assay.
After completion of the first single addition assay run, assay plate was removed from the FLIPR Tetra and placed at 25° C. for seven (7) minutes before antagonist assay.
Using the EC80 values determined during the agonist assay, all pre-incubated sample compound and reference antagonist (if applicable) wells were stimulated at the EC80 of the reference agonist. As reference ligands for the first three assays their obvious natural ligands motilin, prostaglandin F2α, and serotonin (5-HT, 5-Hydroxytryptamine) were used; and for the P2Y1 assay 2MeSATP (2-methyl-thio-adeno-sine 5′-triphosphate, i.e. (2R,3S,4R)-5-(6-amino-2-methylsulfanyl-purin-9-yl)-3,4-dihydroxy-tetrahydrofuran-2-yl]methyl (hydroxy-phosphonooxy-phosphoryl)hydrogen phosphate) was applied.
After the addition of the reference agonist fluorescence was monitored for 180 sec using FLIPR Tetra.
Data Analysis and Results:
From the FLIPR data, with negative control correction enabled, the maximum statistic for each well was exported and percentage activation relative to Emax control was calculated.

T1 sequence (P43088 whole entry): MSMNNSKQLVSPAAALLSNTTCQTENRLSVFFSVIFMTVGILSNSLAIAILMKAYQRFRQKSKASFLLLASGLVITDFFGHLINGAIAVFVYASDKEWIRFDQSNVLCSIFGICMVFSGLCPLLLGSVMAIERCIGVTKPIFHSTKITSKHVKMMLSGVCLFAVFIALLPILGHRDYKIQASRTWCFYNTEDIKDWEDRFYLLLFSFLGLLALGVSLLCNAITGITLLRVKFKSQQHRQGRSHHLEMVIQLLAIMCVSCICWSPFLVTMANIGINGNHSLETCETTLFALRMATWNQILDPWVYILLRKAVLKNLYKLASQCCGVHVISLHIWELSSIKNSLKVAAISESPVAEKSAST

Consider `CN1CCC[C@H](NC(=O)Cc2ccc3ccccc3c2)C(=O)N2C[C@@H](NC(=O)Cc3ccc4ccccc4c3)C[C@H]2COc2cccc(c2)C1=O` [Ex. 186, N-[(4S,6S,10S)-14-methyl-10-{[2-(2-naphthyl)acetyl]amino}-9,15-dioxo-2-oxa-8,14-diazatricyclo[14.3.1.0^4,8]icosa-1(20),16,18-trien-6-yl]-2-(2-naphthyl)acetamide], for which the IC50 is 1200 nM and the inhibition at 10 µM worked out at 53%. As to `COc1cccc(NC(=O)N[C@H]2C[C@H]3COc4cccc(c4)C(=O)N(C)CCC[C@H](NC(=O)Cc4ccc5ccccc5c4)C(=O)N3C2)c1` [Ex. 513, N-[(4S,6S,10S)-6-{[(3-methoxyanilino)carbonyl]amino}-14-methyl-9,15-dioxo-2-oxa-8,14-diazatricyclo[14.3.1.0^4,8]icosa-1(20),16,18-trien-10-yl]-2-(2-naphthyl)acetamide], the IC50 is 650 nM and the inhibition at 10 µM was determined as 95%.

Regarding `CN1CCC[C@H](NC(=O)Cc2ccc(-c3ccccc3)cc2)C(=O)N2C[C@@H](NC(=O)Cc3ccc(-c4ccccc4)cc3)C[C@H]2COc2cccc(c2)C1=O` [Ex. 551, 2-[1,1′-biphenyl]-4-yl-N-[(4S,6S,10S)-10-[(2-[1,1′-biphenyl]-4-ylacetyl)amino]-14-methyl-9,15-dioxo-2-oxa-8,14-diazatricyclo[14.3.1.0^4,8]icosa-1(20),16,18-trien-6-yl]acetamide], the inhibition at 10 µM stood at 72%.

`CCCCCCCCCC(=O)N[C@H]1CCCN(C)C(=O)c2cccc(c2)OC[C@@H]2C[C@H](NC(=O)C(c3ccccc3)c3ccccc3)CN2C1=O` [Ex. 548, N-[(4S,6S,10S)-6-[(2,2-diphenylacetyl)amino]-14-methyl-9,15-dioxo-2-oxa-8,14-diazatricyclo[14.3.1.0^4,8]icosa-1(20),16,18-trien-10-yl]decanamide] came in with an inhibition at 10 µM of 69%. `CN1CCC[C@H](NC(=O)CC(C)(C)C)C(=O)N2C[C@@H](NC(=O)Nc3cccc(N(C)C)c3)C[C@H]2COc2cccc(c2)C1=O` [Ex. 552, N-[(4S,6S,10S)-6-({[3-(dimethylamino)anilino]carbonyl}amino)-14-methyl-9,15-dioxo-2-oxa-8,14-diazatricyclo[14.3.1.0^4,8]icosa-1(20),16,18-trien-10-yl]-3,3-dimethylbutanamide] came in with an inhibition at 10 µM of 71%. On to `CN1CCC[C@H](NC(=O)Nc2cccc(N(C)C)c2)C(=O)N2C[C@@H](NC(=O)Cc3ccc4ccccc4c3)C[C@H]2COc2cccc(c2)C1=O` [Ex. 507, N-[(4S,6S,10S)-10-({[3-(dimethylamino)anilino]carbonyl}amino)-14-methyl-9,15-dioxo-2-oxa-8,14-diazatricyclo[14.3.1.0^4,8]icosa-1(20),16,18-trien-6-yl]-2-(2-naphthyl)acetamide], for which the IC50 was found to be 1100 nM and the inhibition at 10 µM stood at 51%. Molecule `CN1CCC[C@H](NC(=O)Cc2ccc3ccccc3c2)C(=O)N2C[C@@H](NC(=O)Oc3ccccc3)C[C@H]2COc2cccc(c2)C1=O` [Ex. 539, phenyl N-[(4S,6S,10S)-14-methyl-10-{[2-(2-naphthyl)acetyl]amino}-9,15-dioxo-2-oxa-8,14-diazatricyclo[14.3.1.0^4,8]icosa-1(20),16,18-trien-6-yl]carbamate] yielded an inhibition at 10 µM of 59%. Take `CCCCCCCCCC(=O)N[C@H]1CCCN(C)C(=O)c2cccc(c2)OC[C@@H]2C[C@H](NC(=O)Cc3ccc4ccccc4c3)CN2C1=O` [Ex. 504, N-[(4S,6S,10S)-14-methyl-6-{[2-(2-naphthyl)acetyl]amino}-9,15-dioxo-2-oxa-8,14-diazatricyclo[14.3.1.0^4,8]icosa-1(20),16,18-trien-10-yl]decanamide]: the IC50 was found to be 441 nM and the inhibition at 10 µM was 62%. For `CN(C)c1cccc(NC(=O)N[C@H]2C[C@H]3COc4cccc(c4)C(=O)NCCC[C@H](NC(=O)Cc4ccc5ccccc5c4)C(=O)N3C2)c1` [Ex. 386, N-[(4S,6S,10S)-6-({[3-(dimethylamino)anilino]carbonyl}amino)-9,15-dioxo-2-oxa-8,14-diazatricyclo[14.3.1.0^4,8]icosa-1(20),16,18-trien-10-yl]-2-(2-naphthyl)acetamide], in that order: 2700 nM and 85%. Take `CCCCCCCCCC(=O)N[C@H]1CCCN(C)C(=O)c2cccc(c2)OC[C@@H]2C[C@H](NC(=O)CC(c3ccccc3)c3ccccc3)CN2C1=O` [Ex. 550, N-[(4S,6S,10S)-6-[(3,3-diphenylpropanoyl)amino]-14-methyl-9,15-dioxo-2-oxa-8,14-diazatricyclo[14.3.1.0^4,8]icosa-1(20),16,18-trien-10-yl]decanamide]: the inhibition at 10 µM was determined as 73%. `CN1CCC[C@H](NC(=O)CCCCOc2ccccc2)C(=O)N2C[C@@H](NC(=O)Cc3ccc4ccccc4c3)C[C@H]2COc2cccc(c2)C1=O` [Ex. 517, N-[(4S,6S,10S)-14-methyl-6-{[2-(2-naphthyl)acetyl]amino}-9,15-dioxo-2-oxa-8,14-diazatricyclo[14.3.1.0^4,8]icosa-1(20),16,18-trien-10-yl]-5-phenoxypentanamide] gave an IC50 of 650 nM and an inhibition at 10 µM of 98%. Turning to `CN1CCC[C@H](NC(=O)Cc2ccc3ccccc3c2)C(=O)N2C[C@@H](NC(=O)Nc3cccc(F)c3)C[C@H]2COc2cccc(c2)C1=O` [Ex. 537, N-[(4S,6S,10S)-6-{[(3-fluoroanilino)carbonyl]amino}-14-methyl-9,15-dioxo-2-oxa-8,14-diazatricyclo[14.3.1.0^4,8]icosa-1(20),16,18-trien-10-yl]-2-(2-naphthyl)acetamide], the inhibition at 10 µM amounted to 75%. As to `CCCCCCCCCC(=O)N[C@H]1CCCN(C)C(=O)c2cccc(c2)OC[C@@H]2C[C@H](NC(=O)CCc3ccccc3)CN2C1=O` [Ex. 509, N-[(4S,6S,10S)-14-methyl-9,15-dioxo-6-[(3-phenylpropanoyl)amino]-2-oxa-8,14-diazatricyclo[14.3.1.0^4,8]icosa-1(20),16,18-trien-10-yl]decanamide], the IC50 stood at 2100 nM and 10 µM produced 54% inhibition. In turn, `CN1CCC[C@H](NC(=O)CCCCCc2ccccc2)C(=O)N2C[C@@H](NC(=O)CCCCCOCc3ccccc3)C[C@H]2COc2cccc(c2)C1=O` [Ex. 524, 6-(benzyloxy)-N-[(4S,6S,10S)-14-methyl-9,15-dioxo-10-[(6-phenylhexanoyl)amino]-2-oxa-8,14-diazatricyclo[14.3.1.0^4,8]icosa-1(20),16,18-trien-6-yl]hexanamide] returned an IC50 of 1700 nM and an inhibition at 10 µM of 85%. As to `Cc1cccc(NC(=O)N[C@H]2CCCN(C)C(=O)c3cccc(c3)OC[C@@H]3C[C@H](NC(=O)Cc4ccc5ccccc5c4)CN3C2=O)c1` [Ex. 506, N-[(4S,6S,10S)-14-methyl-9,15-dioxo-10-[(3-toluidinocarbonyl)amino]-2-oxa-8,14-diazatricyclo[14.3.1.0^4,8]icosa-1(20),16,18-trien-6-yl]-2-(2-naphthyl)acetamide], the concentration for half-maximal inhibition (IC50) came to 2200 nM and 10 µM produced 55% inhibition. With `CCCCCCCCCC(=O)N[C@H]1CCCN(C)C(=O)c2cccc(c2)OC[C@@H]2C[C@H](NC(=O)Cc3cccc(Oc4ccccc4)c3)CN2C1=O` [Ex. 515, N-[(4S,6S,10S)-14-methyl-9,15-dioxo-6-{[2-(3-phenoxyphenyl)acetyl]amino}-2-oxa-8,14-diazatricyclo[14.3.1.0^4,8]icosa-1(20),16,18-trien-10-yl]decanamide], the half-maximal inhibitory concentration (IC50) amounted to 5100 nM and testing at 10 µM gave an inhibition of 32%. As to `CCCCCCCCCC(=O)N[C@H]1C[C@H]2COc3cccc(c3)C(=O)N(C)CCC[C@H](NC(=O)Cc3cccc4ccccc34)C(=O)N2C1` [Ex. 543, N-[(4S,6S,10S)-14-methyl-10-{[2-(1-naphthyl)acetyl]amino}-9,15-dioxo-2-oxa-8,14-diazatricyclo[14.3.1.0^4,8]icosa-1(20),16,18-trien-6-yl]decanamide], the inhibition at 10 µM was found to be 82%.
